# Measured values published in patent publication EP0118120A2, “1,4-Dihydropyridine compound” (priority 1983, dated 1984).
# Columns and labels:
# [1] = tested on: liver disorder induced by carbon tetrachloride; assay: Effect on liver disorder induced by carbon tetrachloride in rats, serum GOT, GPT, AlP, bilirubin (Example 26); type: in vivo, SLC-Wistar male rats
# Description: (§1) Effect of the compounds according to the present invention on liver disorder induced by carbon tetrachloride
# (§2) The effects of the sample compounds to be tested on hepatic disorder were evaluated by determining the levels of GOT, GPT, AlP, and bilirubin, which are known as an indicator of hepatic disorder, in serum, after administering carbon tetrachloride and the sample compounds to SLC-Wistar male rats (9 weeks old and body weight of 210 to 250 g in Tables 1, 3, and 4, and 10 weeks old and body weight of 230 to 260 g in Table 2) as follows.
# (§3) Five rats were used in each test group. The sample compound (i.e., each compound listed below) was suspended at a concentration of 40 mg/ml in a 0.1% aqueous solution of Tween-80 (i.e., nonionic surfactant available from Atlas Powder Co., Ltd.). The resultant suspension was orally administered at a dose of 200 mg/kg each at 25 hours and 1 hour before the administration of carbon tetrachloride, except for the control group. For the control group to which only carbon tetrachloride was administered in the evaluation test, a 0.1% aqueous Tween-80 was orally administered at a dose of 5 ml/kg in the same manner.
# (§4) Carbon tetrachloride was intraperiotoneally administered as a 10% olive oil solution at a dose of 5 ml/kg (0.5 ml/kg in terms of CC14) one hour after the final administration of the sample compound. For the control (normal) group, olive oil was intraperitoneally administered in the same manner at a dose of 5 ml/kg.
# (§5) Blood samples were collected from the carotid artery under pentobarbital anesthesia, 24 hours after the administration of carbon tetrachloride. The rats were fasted for 18 to 22 hours before collecting the blood samples.
# (§6) The determination of GOT and GPT in serum was carried out according to a UV method, the determination of AlP was carried cut according to Bessy-Lowry method, and the determination of bilirubin was carried out according to a diazo method.
# [2] = Acute toxicity, oral LD50 in rats (Example 28); conditions: rat, in vivo, male rats 5 weeks old, 130 to 150 g, observed for one week
# Text: Acute toxicity of the compounds according to the present invention
# [3] = tested on: liver disorder induced by carbon tetrachloride; assay: Effect on liver disorder induced by carbon tetrachloride in rats, repeat with 8 weeks old rats (Example 27); type: in vivo, SLC-Wistar male rats; conditions: serum 24 hours after CCl4, 200 mg/kg orally x2, rats 8 weeks old
# Description: as §2, §3, §4, §5, §6, §1
# The evaluation tests of Example 26 were repeated except that SLC-Wistar male rats (8 weeks old and body weight of 170 to 210 g) were used.
# [4] = Table 1, serum 24 hours after CCl4 0.5 ml/kg i.p., compound 200 mg/kg orally 25 hours and 1 hour before CCl4, rats 9 weeks old, CCl4 only 17327 ± 2336, normal 76 ± 1
# [5] = Table 1, serum 24 hours after CCl4, 200 mg/kg orally x2, rats 9 weeks old, CCl4 only 0.62 ± 0.30, normal 0.10 ± 0.00
# [6] = Table 1, serum 24 hours after CCl4, 200 mg/kg orally x2, rats 9 weeks old, CCl4 only 35.5 ± 2.5, normal 23.6 ± 0.4
# [7] = Table 1, serum 24 hours after CCl4, 200 mg/kg orally x2, rats 9 weeks old, CCl4 only 10496 ± 1221, normal 31 ± 2
# [8] = Table 4, serum 24 hours after CCl4, 200 mg/kg orally x2, rats 9 weeks old, CCl4 only 0.38 ± 0.04, normal 0.10 ± 0.00
# [9] = Table 4, serum 24 hours after CCl4, 200 mg/kg orally x2, rats 9 weeks old, CCl4 only 35.0 ± 2.0, normal 24.4 ± 0.7
# [10] = Table 4, serum 24 hours after CCl4, 200 mg/kg orally x2, rats 9 weeks old, CCl4 only 10523 ± 2313, normal 31 ± 3
# [11] = Table 4, serum 24 hours after CCl4, 200 mg/kg orally x2, rats 9 weeks old, CCl4 only 17704 ± 4140, normal 76 ± 4
# [12] = Table 3, serum 24 hours after CCl4, 200 mg/kg orally x2, rats 9 weeks old, CCl4 only 0.38 ± 0.06, normal 0.22 ± 0.04
# [13] = Table 3, serum 24 hours after CCl4, 200 mg/kg orally x2, rats 9 weeks old, CCl4 only 34.4 ± 2.6, normal 27.0 ± 0.5
# [14] = Table 3, serum 24 hours after CCl4, 200 mg/kg orally x2, rats 9 weeks old, CCl4 only 9188 ± 1815, normal 30 ± 2
# [15] = Table 3, serum 24 hours after CCl4, 200 mg/kg orally x2, rats 9 weeks old, CCl4 only 13189 ± 2205, normal 81 ± 3
# [16] = Table 5, 170 to 210 g, CCl4 only 27875 ± 3628, normal 78 ± 3
# [17] = Table 5, CCl4 only 0.55 ± 0.16, normal 0.10 ± 0.00
# [18] = Table 5, CCl4 only 41.3 ± 2.5, normal 25.7 ± 0.4
# [19] = Table 5, CCl4 only 12984 ± 1465, normal 30 ± 3
structure (smiles),measurement,setting,value
"CC(=O)C1=C(C)NC(C)=C(C#N)C1C1=COCCO1 (centres unmarked) [Sample Compound B, 3-acetyl-5-cyano-4-[2-(5,6-dihydro-p-dioxinyl)]-2,6-dimethyl-l,4-dihydropyridine]",GOT,[1]; [4],1604 ± 569 K.U.
same,Bilirubin,[1]; [5],0.20 ± 0.00 mg/dL
same,AlP,[1]; [6],34.1 ± 3.4 K-AU.
same,GPT,[1]; [7],1023 ± 368 K.U.
"COC(=O)C1=C(C)NC(C)=C(C#N)C1C1=COCCO1 (centres unmarked) [Sample Compound C, methyl 5-cyano-4-[2-(5,6-dihydro-p-dioxinyl)]-2,6-dimethyl-1,4-dihydropyridine-3-carboxylate]",GOT,"[1]; Table 2, serum 24 hours after CCl4, 200 mg/kg orally x2, rats 10 weeks old, 230 to 260 g, CCl4 only 20701 ± 2821, normal 89 ± 12",1447 ± 313 K.U.
same,Bilirubin,"[1]; Table 2, serum 24 hours after CCl4, 200 mg/kg orally x2, rats 10 weeks old, CCl4 only 0.40 ± 0.09, normal 0.10 ± 0.00",0.20 ± 0.00 mg/dL
same,AlP,"[1]; Table 2, serum 24 hours after CCl4, 200 mg/kg orally x2, rats 10 weeks old, CCl4 only 32.3 ± 2.8, normal 22.7 ± 0.6",31.7 ± 3.2 K-AU.
same,GPT,"[1]; Table 2, serum 24 hours after CCl4, 200 mg/kg orally x2, rats 10 weeks old, CCl4 only 11034 ± 1354, normal 41 ± 3",912 ± 198 K.U.
"COCC(C)OC(=O)C1=C(C)NC(C)=C(C(=O)OC(C)COC)C1C1=COCCO1 (centres unmarked) [Sample Compound D, bis(1-methyl-2-methoxyethyl) 4-[2-(5,6-dihydro-p-dioxinyl)]-2,6-dimethyl-l,4-dihydropyridine-3,5-dicarboxylate]",GOT,[1]; [4],2572 ± 518 K.U.
same,Bilirubin,[1]; [5],0.20 ± 0.00 mg/dL
same,AlP,[1]; [6],31.0 ± 1.5 K-AU.
same,GPT,[1]; [7],2050 ± 419 K.U.
CC1=C(C(=O)OC(C)C)C(C2=COCCO2)C(C(=O)OC(C)C)=C(C)N1 [Sample Compound G],Bilirubin,[1]; [8],0.22 ± 0.02 mg/dL
same,AlP,[1]; [9],31.5 ± 1.2 K-AU.
same,GPT,[1]; [10],2994 ± 638 K.U.
same,GOT,[1]; [11],3482 ± 707 K.U.
"C=CCOC(=O)C1=C(C)NC(C)=C(C(=O)OCC=C)C1C1=COCCO1 [Sample Compound H, diallyl 4-[2-(5,6-dihydro-p-dioxinyl)]-2,6-dimethyl-l,4-dihydropyridine-3,5-dicarboxylate]",Bilirubin,[1]; [8],0.22 ± 0.04 mg/dL
same,AlP,[1]; [9],29.5 ± 2.4 K-AU.
same,GPT,[1]; [10],1453 ± 699 K.U.
same,GOT,[1]; [11],1920 ± 881 K.U.
same,LD50 at 168 h,[2],> 1000 mg/kg
"C#CCOC(=O)C1=C(C)NC(C)=C(C(=O)OCC#C)C1C1=COCCO1 [Sample Compound I, dipropargyl 4-[2-(5,6-dihydro-p-dioxinyl)]-2,6-dimethyl-l,4-dihydropyridine-3,5-dicarboxylate]",Bilirubin,[1]; [8],0.22 ± 0.02 mg/dL
same,AlP,[1]; [9],27.6 ± 1.8 K-AU.
same,GPT,[1]; [10],2110 ± 228 K.U.
same,GOT,[1]; [11],2925 ± 380 K.U.
same,LD50 at 168 h,[2],> 2000 mg/kg
"COC(=O)C1=C(C)NC(C)=C(C(=O)OC(C)C)C1C1=COCCO1 (centres unmarked) [Sample Compound K, isopropyl methyl 4-[2-(5,6-dihydro-p-dioximyl)]-2,6-dimethyl-1,4-dihydropyridine-3,5-dicarboxylate]",Bilirubin,[1]; [8],0.24 ± 0.02 mg/dL
same,AlP,[1]; [9],29.6 ± 0.8 K-AU.
same,GPT,[1]; [10],1657 ± 436 K.U.
same,GOT,[1]; [11],2290 ± 619 K.U.
"COC(=O)C1=C(C)NC(C)=C(C(C)=O)C1C1=COCCO1 (centres unmarked) [Sample Compound M, methyl 5-acetyl-4-[2-(5,6-dihydro-p-dioxinyl)]-2,6-dimethyl-l,4-dihydropyridine-3-carboxylate]",Bilirubin,[1]; [8],0.20 ± 0.00 mg/dL
same,AlP,[1]; [9],29.1 ± 1.1 K-AU.
same,GPT,[1]; [10],428 ± 88 K.U.
same,GOT,[1]; [11],807 + 176 K.U.
"COCCOC(=O)C1=C(C)NC(C)=C(C(C)=O)C1C1=COCCO1 (centres unmarked) [Sample Compound N, 2-methoxyethyl 5-acetyl-4-[2-(5,6-dihydro-p-dioxinyl)]-2,6-dimethyl-1,4-dihydropyridine-3-carboxylate]",Bilirubin,[1]; [8],0.18 ± 0.02 mg/dL
same,AlP,[1]; [9],28.5 ± 1.7 K-AU.
same,GPT,[1]; [10],2860 ± 858 K.U.
same,GOT,[1]; [11],3430 ± 922 K.U.
"CC(=O)C1=C(C)NC(C)=C(C(C)=O)C1C1=COCCC1 [Sample Compound P, 3,5-diacetyl-4-[5-(3,4-dihydro-2H-pyranyl)]-2,6-dimethyl-1,4-dihydropyridine]",Bilirubin,[1]; [12],0.32 ± 0.02 mg/dL
same,AlP,[1]; [13],35.1 ± 1.4 K-AU.
same,GPT,[1]; [14],616 ± 193 K.U.
same,GOT,[1]; [15],899 ± 252 K.U.
"CC(=O)C1=C(C)NC(C)=C(C(C)=O)C1C1=CSCCS1 [Sample Compound Q, 3,5-diacetyl-4-[2-(5,6-dihydro-1,4-dithiinyl)]-2,6-dimethyl-1,4-dihydropyridine]",Bilirubin,[1]; [12],0.26 ± 0.02 mg/dL
same,AlP,[1]; [13],29.8 ± 1.3 K-AU.
same,GPT,[1]; [14],1891 ± 357 K.U.
same,GOT,[1]; [15],2583 ± 540 K.U.
"COCOC(=O)C1=C(C)N(COC)C(C)=C(C(=O)OCOC)C1C1=COCCO1 [Sample Compound S, bis(methoxymethyl) 4-[2-(5,6-dihydro-p-dioxinyl)]-1-methoxymethyl-2,6-dimethyl-1,4-dihydropyridine-3,5-dicarboxylate]",GOT,[3]; [16],461 ± 162 K.U.
same,Bilirubin,[3]; [17],0.10 ± 0.00 mg/dL
same,AlP,[3]; [18],26.3 ± 0.8 K-AU.
same,GPT,[3]; [19],313 ± 120 K.U.
"COC(=O)C1=C(C)NC(C)=C(C(=O)OC)C1C1=C(C)OC(C)CO1 (centres unmarked) [Sample Compound T, dimethyl 2,6-dimethyl-4-[2-(3,5-dimethyl-5,6-dihydro-p-dioxinyl)] -1,4-dihydropyridine-3,5-dicarbcxylate]",GOT,[3]; [16],5538 ± 954 K.U.
same,Bilirubin,[3]; [17],0.25 ± 0.03 mg/dL
same,AlP,[3]; [18],34.4 ± 1.7 K-AU.
same,GPT,[3]; [19],4156 ± 196 K.U.
"COCOC(=O)C1=C(C)NC(C)=C(C(=O)OCOC)C1C1=C(C)OC(C)CO1 (centres unmarked) [Sample Compound U, bis (methcxymethyl) 2,6-dimethyl-4-[2-(3,5-dimethyl-5,6-dihydro-p-dioxinyl)]-1,4-dihydropyridine-3,5-dicarboxylate]",GOT,[3]; [16],608 ± 214 K.U.
same,Bilirubin,[3]; [17],0.10 ± 0.00 mg/dL
same,AlP,[3]; [18],27.0 ± 1.0 K-AU.
same,GPT,[3]; [19],384 ± 135 K.U.
"CC(=O)C1=C(C)NC(C)=C(C(C)=O)C1C1=C(C)OCCO1 [Sample Compound W, 3,5-diacetyl-2,6-dimethyl-4-[2-(3-methyl-5,6-dihydro-p-dioxinyl)]-1,4-dihydropyridine]",Bilirubin,"[3]; Table 6, CCl4 only 0.50 ± 0.08, normal 0.12 ± 0.02",0.20 ± 0.00 mg/dL
same,AlP,"[3]; Table 6, CCl4 only 52.5 ± 2.2, normal 36.3 ± 1.6",49.5 ± 3.0 K-AU.
same,GPT,"[3]; Table 6, CCl4 only 12606 ± 1688, normal 39 ± 4",805 ± 195 K.U.
same,GOT,"[3]; Table 6, CCl4 only 23424 ± 3360, normal 79 ± 2",1194 ± 234 K.U.
